Test results reported in article PMC8750417, “Intracellular Amplifiers of Reactive Oxygen Species Affecting Mitochondria as Radiosensitizers” (Cancers, 2021).

Tests used:
[1] = tested on: human ovarian carcinoma, Burkitt’s lymphoma, pancreatic carcinoma and T-cell leukemia cells; assay: Anticancer activity, summary over four cancer cell lines; type: cell-based; conditions: read-out: IC50 values, range over cell lines
Protocol: Determination of viability of cells in the presence of prodrugs and controls A2780 and BL-2 cells The medium was removed, and the cells were washed two times with DPBS, trypsinated, and resuspended in RPMI 1640 medium (A2780) supplemented with 5% FBS (for 24 h and 48 h assay) or 10% FBS (for 96 h assay) , 1% L-glutamine, and 1% penicillin/streptomycin.
A2780 cells: This suspension was spread in the wells of a 96 -well microtiter plate (25000 cells for A2780 per well per 100 μL) and left standing at 37 °C in the chamber filled with CO2 (5%) for overnight. […] Afterward, the intensity of the absorbance at 590 nm was measured.
MTT is converted in live cells to blue dye with the absorbance maximum λ max at 590 nm.
The absorbance at 690 nm was taken as a baseline value. The baseline corrected absorbance at 590 nm (A(590 nm) − A(690 nm)) was applied to calculate the relative number of viable cells. […]
AsPC1 cells The cells (20.000/well) were seeded in a 12-well plate and incubated for 24 h. […] Viable cells were determined based on the morphological parameters by using flow cytometry (Table S4). […]
Jurkat cells The cells were counted in MUSE Cell Analyzer using MUSE® Count &Viability Assay Kit (Merck-Millipore, Billerica, MA, USA) and adjusted to a density of 1.0 x 10^5/ml in RPMI 1640 medium (with 10% FCS and 1% glutamine). […]

[2] = Hydrolysis of prodrugs in aqueous neutral solution (HPLC-UV-MS); type: physicochemical; conditions: 1 to 1_BA
Protocol: To identify the active form of prodrugs 2a–2d in aqueous neutral buffers, we investigated their stability in the water rich solvent mixture containing triethylammonium acetate buffer (pH 7.0, 1.5 mM) and CH3CN (7/3, v/v). We observed that even freshly prepared solutions of analytically pure samples of 2a–2d (peaks eluted at 10.2–10.7 min) contain hydrolyzed species corresponding to boronic acid derivatives 2a_BA–2d_BA (peaks eluted at 7.1–7.5 min, 7–14% of the area of all peaks) (Figure S43, SI). After 2 h incubation of these samples, the peaks of 2a_BA–2d_BA become major ones (79–87% of the area of all peaks, Figure S43, SI).
Figure S42. High resolution ESI-TOF mass spectrum of HCl salt of drug 4 (4*HCl): upper plot – experimental spectrum; bottom plot – theoretical spectrum.
Determination of crystal structure of prodrug 2a […]
Stock solutions of prodrugs (2a-2d, 3 mM) in DMSO were first prepared. […] After the probes (20 µL) of these solutions were incubated for 0 or 2 h at 37 °C, they were injected to HPLC coupled to UV-visible detector (detection of absorbance at 254 nm) and electrospray mass spectrometric detector (detection of positively charged ions in the m/z range of 300 - 1200) and the analytes were separate d by using gradients of CH3CN (containing formic acid, 0.1 %, v/v) in water (containing ammonium formate, 10 mM and formic acid, 0.1 %, v/v) from 15% to 95%. […]

Row | SMILES | IC50 [1] [µM] | time of formation of the hydrolyzed form in aqueous neutral solution [2] [h]
1 | CC1(C)OB(c2ccc(COC(=O)N(Cc3cn(Cc4ccc(Cn5cc(Cc6ccccc6)nn5)cc4)nn3)[c-]3cccc3)cc2)OC1(C)C.[Fe+2].c1cc[cH-]c1 [2c] | 5 to 7.1 | 
2 | CCOC(=O)CCCCCn1cc(CN(C(=O)OCc2ccc(B3OC(C)(C)C(C)(C)O3)cc2)[c-]2cccc2)nn1.[Fe+2].c1cc[cH-]c1 [compound 1] |  | < 2
